Data from publication PMC5942189 (Journal of the American Chemical Society, 2018).

What was measured:
[1] = tested on: multi-drug-resistant Acinetobacter baumannii (Ab) 5075; assay: MIC determination in Mueller-Hinton broth, A. baumannii 5075; assay type: cell-based; conditions: multi-drug-resistant A. baumannii Ab5075; standard Mueller-Hinton broth assay
[2] = tested on: Escherichia coli W3110 (wild-type); assay: MIC determination in Mueller-Hinton broth, E. coli W3110; assay type: cell-based; conditions: standard Mueller-Hinton broth assay
[3] = tested on: E. coli WD101 (isogenic CAMP-resistant mutant, colistin-resistant); assay: MIC determination in Mueller-Hinton broth, E. coli WD101; assay type: cell-based, Escherichia coli; conditions: standard Mueller-Hinton broth assay

## N-XTRSSRAGLQFPVGRVHRLLRXK-C [DiHy buforin]
[1]
  MIC: 64 µM

## N-XTRSSRAGLQFPXVGRVHRLLRXK-C [TriAl buforin]
[1]
  MIC: 64 µM

## N-AlTRSSRAGLQFPVGRVHRLLRKF-Hy (sidechain bridge or staple) [HyRes buforin]
[2]
  MIC: 8 µM
[1]
  MIC: 4 µM
[3]
  MIC: 16 µM
